# Experimental data reported in patent US20210255184A1, “Biosensor Device and Methods” (The New Zealand Institute for Plant and Food Research …, priority 2018, published 2021).
# Tests used:
# [1] = target: T1, Or10a (Drosophila melanogaster, UniProt Q9VYZ1); assay: EIS sensor, Or10a liposomes on gold electrode; type: biochemical
# T1 construct: his-tag; made in house; host or cells: baculovirus-infected Sf9 cells
# T1 sequence (Q9VYZ1 1-406): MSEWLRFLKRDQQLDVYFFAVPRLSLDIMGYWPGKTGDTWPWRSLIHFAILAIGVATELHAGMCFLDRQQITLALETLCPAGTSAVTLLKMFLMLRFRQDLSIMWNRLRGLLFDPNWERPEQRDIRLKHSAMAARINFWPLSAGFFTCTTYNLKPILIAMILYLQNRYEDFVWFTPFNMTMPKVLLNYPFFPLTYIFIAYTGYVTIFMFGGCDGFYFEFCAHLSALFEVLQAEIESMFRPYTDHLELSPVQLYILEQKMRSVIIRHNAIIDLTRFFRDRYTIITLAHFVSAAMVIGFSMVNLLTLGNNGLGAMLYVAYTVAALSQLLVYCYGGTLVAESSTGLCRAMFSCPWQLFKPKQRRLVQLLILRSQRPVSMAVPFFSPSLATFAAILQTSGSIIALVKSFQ
# Method: (§1) Prior to their use, liposomes were defrosted on ice and then destabilized by incubating with 0.2% CHAPS for 15 min at room temperature. Then 200 μg of purified odorant receptor^28 was added to 1 mg of liposomes and rotated at 10 rpm for 1 h at room temperature. Excess detergent was removed by four additions of 25 mg of Bio-Beads SM-2 (Bio-Rad, USA) and incubation at 4° C. for 30 min, 2 h, overnight and a further 2 h respectively. The Bio-Beads were removed after each incubation period. The OrX or OrX/Orco integrated liposomes were pelleted by centrifugation at 100,000 g for 1 h, and were resuspended in 500 μL of rehydration buffer. Integration of OrXs and Orco into liposomes was assessed by density gradient ultracentrifugation (DGU) using Accudenz (Accurate Chemical & Scientific Corporation, USA). The integrated liposomes were brought to 40% Accudenz by the addition of an equal volume of 80% Accudenz solution, placed at the bottom of an ultra-centrifugation tube, and overlaid with 30% Accudenz solution, and DGU buffer (25 mM HEPES pH 7.5, 100 mM NaCl, 10% glycerol). The sample was then centrifuged at 100,000 g for 4 h at 4° C. Liposomes will float to the top of the gradient after Accudenz DGU due to their low density.
# 2 mM MHA was prepared by dissolving 1.36 μl of MHA in 5 ml ethanol (AR grade). The cleaned electrodes were immersed into MHA solution and incubated overnight. The next day, all the electrodes were washed with ethanol and deionised water thoroughly in order to remove the unreacted acid. A 2:1 mol:mol ratio of EDC:NHS (100 mM EDC, 50 mM NHS) was prepared in 2 ml PBS (pH=6.5) solution. Then, the electrodes were covered in 100 μl of this solution at 28° C. for an hour to activate the carboxylic (COOH) groups of the MHA.
# PBS solution was prepared by immersing one tablet of PBS in 200 ml of milli-Q water (according to manufacturers instructions) and filtered using 0.2-μm syringe filter. The pH of the prepared buffer solution was measured with a pH meter. OrX liposomes or OrX/Orco liposomes were diluted 100 fold in PBS buffer solution (pH=7.4) and the COOH-activated electrodes were incubated in that buffer solution at room temperature for one hour. Then, the electrodes were washed extensively with PBS buffer solution to wash out any unbound liposomes.
# PBS (pH=7.4) was used as an electrolyte to conduct electrochemical measurements. PBS buffer was degassed for about 30 minutes prior to electrochemical measurements. Odorant solutions of concentration ranging from 1 aM to 1 μM were prepared by sequential dilution in PBS solution containing 1% DMSO. OR immobilized electrodes were incubated in relevant odorant solution for ˜30 minutes each and washed gently with PBS before EIS measurements.
# EIS measurements were done in a 3 electrode cell containing Ag/AgCl (3 M NaCl, 0.209 V vs. SHE) reference electrode, coiled platinum wire as a counter electrode and the gold disk as a working electrode at a fixed voltage of −0.7 using PalmSens potentiostat. Degassed PBS was used as an electrolyte.
# EIS measurements were performed on gold electrodes functionalised with OrX liposomes (either Or10a or Or22a), OrX/Orco liposomes, or empty liposomes prior to and after target ligand or control ligand incubation with increasing concentrations (1 aM to 100 μM). Dose response curves were obtained by defining sensor response as −(ΔRp/R^op) versus log[C(Ligand)]. FIG. 4a presents the EIS response in terms of Nyquist plot for the Or10a liposome functionalized sensors when exposed to a solution containing one of the known target ligands of Or10a, methyl salicylate, at various concentrations. […] The dose response curve (FIG. 4b) was obtained by plotting the change in polarization resistance −(ΔRp/R^op) versus log[conc(Ligand)], as the sensor response. Here, Rp is the polarization resistance after Or10a liposome-target interaction and R^op is the polarization resistance before Or10a liposome-target interaction.
# [2] = target: T2, Orco (Drosophila melanogaster, UniProt Q9VNB5); assay: EIS sensor, Orco liposomes (specificity control); type: biochemical; settings: Orco only liposomes
# T2 construct: his-tag; made in house; host or cells: baculovirus-infected Sf9 cells
# T2 sequence (Q9VNB5 1-486): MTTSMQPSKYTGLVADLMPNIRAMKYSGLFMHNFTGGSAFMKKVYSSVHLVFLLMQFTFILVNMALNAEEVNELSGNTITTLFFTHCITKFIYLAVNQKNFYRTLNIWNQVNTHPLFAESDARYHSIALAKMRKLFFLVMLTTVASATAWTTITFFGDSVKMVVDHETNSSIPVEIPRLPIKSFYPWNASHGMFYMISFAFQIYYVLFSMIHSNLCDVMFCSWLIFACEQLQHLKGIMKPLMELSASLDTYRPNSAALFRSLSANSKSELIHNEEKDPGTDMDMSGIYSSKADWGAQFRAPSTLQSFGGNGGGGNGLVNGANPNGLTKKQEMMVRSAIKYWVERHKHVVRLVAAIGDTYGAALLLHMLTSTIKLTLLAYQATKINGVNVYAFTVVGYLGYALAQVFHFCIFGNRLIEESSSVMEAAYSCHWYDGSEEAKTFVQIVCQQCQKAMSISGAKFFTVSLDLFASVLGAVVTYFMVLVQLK
# Method: as §1, with “Liposomes will float to the top of the gradient after Accudenz DGU due to their low density.” left out
# PBS solution was prepared by immersing one tablet of PBS in 200 ml of milli-Q water (according to manufacturers instructions) and filtered using 0.2-μm syringe filter. The pH of the prepared buffer solution was measured with a pH meter. […]
SMILES,"limit of detection (LOD) ([1]; EIS dose response, ligand 1 aM to 100 μM)","EC50 ([1]; Table 1, approximate)","Sensitivity limit ([1]; Table 1, * estimated visually from dose response graph)",Detection Range ([1]; Table 3),"EC50 ([1]; Table 3, fitted dose response)",sensor response to ligand [2],sensor response to control ligand ([1]; EIS dose response)
COC(=O)c1ccccc1O [methyl salicylate],0.1 pM,~100 pM,~10^−10 M*,10^−13 to 10^−7 M,2.2 pM,negligible response,
CCCCCC(=O)OC [methyl hexanoate],,,,,,negligible response,negligible response
